Laboratory results taken from patent publication US20250230193A1, “CYCLIC COMPOUND HAVING SELECTIVE KRAS INHIBITORY EFFECT ON HRAS AND NRAS” (CHUGAI SEIYAKU KABUSHIKI KAISHA, priority 2022, published 2025).

Legend:
[1] = molecular target: GDP-bound NRAS wild-type protein (Homo sapiens, UniProt P01111); test: Binding to NRAS by surface plasmon resonance (SPR), Single Cycle Kinetics; details: KD ratio, GDP-bound NRAS wild-type vs GDP-bound KRAS wild-type, SPR
[2] = molecular target: GDP-bound HRAS wild-type protein (Homo sapiens, UniProt P01112); test: Binding to HRAS by surface plasmon resonance (SPR), Single Cycle Kinetics; details: KD ratio, GDP-bound HRAS wild-type vs GDP-bound KRAS wild-type, SPR
Chain of GDP-bound HRAS wild-type protein (P01112 whole entry): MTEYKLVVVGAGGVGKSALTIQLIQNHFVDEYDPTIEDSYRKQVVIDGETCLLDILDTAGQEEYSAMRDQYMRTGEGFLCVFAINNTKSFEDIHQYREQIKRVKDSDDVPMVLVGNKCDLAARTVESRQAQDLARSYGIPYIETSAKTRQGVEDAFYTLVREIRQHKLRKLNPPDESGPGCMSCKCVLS

Chain of GDP-bound NRAS wild-type protein (P01111 whole entry): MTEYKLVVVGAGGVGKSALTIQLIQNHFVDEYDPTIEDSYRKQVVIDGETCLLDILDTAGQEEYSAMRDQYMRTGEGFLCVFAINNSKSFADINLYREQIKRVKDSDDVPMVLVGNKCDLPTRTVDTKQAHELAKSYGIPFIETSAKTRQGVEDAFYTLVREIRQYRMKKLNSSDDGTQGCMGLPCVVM

Structure (SMILES) | NRAS/KRAS (ratio of KD value for NRAS to KD value for KRAS) [1] | HRAS/KRAS (ratio of KD value for HRAS to KD value for KRAS) [2]
CCO[C@@H]1C[C@H]2C(=O)NC3(CC(C)(C)C3)C(=O)N(C)[C@@H](C3CCCC3)C(=O)N(C)[C@H](C(=O)N(C)CC)CC(=O)N(C)[C@@H](CC)C(=O)N[C@@H]([C@@H](C)CC)C(=O)N(C)CC(=O)N(C)[C@H]3C/C=C\CCN(C3=O)[C@@H](Cc3ccc(C)cc3)C(=O)N(C)CC(=O)N[C@@H](CCc3ccc(C(F)(F)F)c(Cl)c3)C(=O)N2C1 [PP1880] | A (a compound having 10 or more and less than 20 is denoted as A) | B (a compound having 3 or more and less than 10 is denoted as B)
CCO[C@@H]1C[C@H]2C(=O)NC3(CC(C)(C)C3)C(=O)N(C)[C@@H](C3CCCC3)C(=O)N(C)[C@H](C(=O)N(CC)CC)CC(=O)N(C)[C@@H](CC)C(=O)N[C@@H]([C@@H](C)CC)C(=O)N(C)CC(=O)N(C)[C@H]3C/C=C\CCN(C3=O)[C@@H](Cc3ccc(C)cc3)C(=O)N(C)CC(=O)N[C@@H](CCc3ccc(C(F)(F)F)c(OC)c3)C(=O)N2C1 [PP1881] | A (a compound having 10 or more and less than 20 is denoted as A) | A (a compound having 10 or more and less than 20 is denoted as A)
CCO[C@@H]1C[C@H]2C(=O)NC3(CC(C)(C)C3)C(=O)N(C)[C@@H](C3CCCC3)C(=O)N(C)[C@H](C(=O)N(CC)CC)CC(=O)N(C)[C@@H](CC)C(=O)N[C@@H]([C@@H](C)CC)C(=O)N(C)CC(=O)N(C)[C@H]3C/C=C\CCN(C3=O)[C@@H](Cc3ccc(C)cc3)C(=O)N(C)CC(=O)N[C@@H](CCc3ccc(C(F)(F)F)c(Cl)c3)C(=O)N2C1 [PP1883] | A (a compound having 10 or more and less than 20 is denoted as A) | A (a compound having 10 or more and less than 20 is denoted as A)
CC[C@H](C)[C@@H]1NC(=O)[C@H](CC(C)C)N(C)C(=O)C[C@@H](C(=O)N(CC)CC)N(C)C(=O)[C@H](C2CCCC2)N(C)C(=O)C2(CCC2)NC(=O)[C@@H]2C[C@H](C)CN2C(=O)[C@H](CCc2ccc(C(F)(F)F)c(OC)c2)NC(=O)CN(C)C(=O)[C@H](Cc2ccc(C)cc2)N2CC/C=C\C[C@@H](C2=O)N(C)C(=O)CN(C)C1=O [PP1885] | AA (a compound having 20 or more is denoted as AA) | A (a compound having 10 or more and less than 20 is denoted as A)
CCO[C@@H]1C[C@H]2C(=O)NC3(CC(C)(C)C3)C(=O)N(C)[C@@H](C3CCCC3)C(=O)N(C)[C@H](C(=O)N(C)CC)CC(=O)N(C)[C@@H](CC)C(=O)N[C@@H]([C@@H](C)CC)C(=O)N(C)CC(=O)N(C)[C@H]3C/C=C\CCN(C3=O)[C@@H](Cc3ccc(C)cc3)C(=O)N(C)CC(=O)N[C@@H](CCc3cc(F)c(C(F)(F)F)c(F)c3)C(=O)N2C1 [PP1886] | A (a compound having 10 or more and less than 20 is denoted as A) | B (a compound having 3 or more and less than 10 is denoted as B)
CCO[C@@H]1C[C@H]2C(=O)NC3(CCC3)C(=O)N(C)[C@@H](C3CCCC3)C(=O)N(C)[C@H](C(=O)N(CC)CC)CC(=O)N(C)[C@@H](CC(C)C)C(=O)N[C@@H]([C@@H](C)CC)C(=O)N(C)CC(=O)N(C)[C@H]3C/C=C\CCN(C3=O)[C@@H](Cc3ccc(C)cc3)C(=O)N(C)CC(=O)N[C@@H](CCc3ccc(C(F)(F)F)c(OC)c3)C(=O)N2C1 [PP1887] | A (a compound having 10 or more and less than 20 is denoted as A) | B (a compound having 3 or more and less than 10 is denoted as B)
CCC[C@H]1C(=O)N[C@@H]([C@@H](C)CC)C(=O)N(C)CC(=O)N(C)[C@H]2C/C=C\CCN(C2=O)[C@@H](Cc2ccc(C)cc2)C(=O)N(C)CC(=O)N[C@@H](CCc2ccc(C(F)(F)F)c(OC)c2)C(=O)N2C[C@@H](C)C[C@H]2C(=O)NC2(CC(C)(C)C2)C(=O)N(C)[C@@H](C2CCCC2)C(=O)N(C)[C@H](C(=O)N(C)C)CC(=O)N1C [PP1888] | A (a compound having 10 or more and less than 20 is denoted as A) | B (a compound having 3 or more and less than 10 is denoted as B)
CCC[C@H]1C(=O)N[C@@H]([C@@H](C)CC)C(=O)N(C)CC(=O)N(C)[C@H]2C/C=C\CCN(C2=O)[C@@H](Cc2ccc(C)cc2)C(=O)N(C)CC(=O)N[C@@H](CCc2ccc(C(F)(F)F)c(OC)c2)C(=O)N2C[C@@H](C)C[C@H]2C(=O)NC2(CC(C)(C)C2)C(=O)N(C)[C@@H](C2CCCC2)C(=O)N(C)[C@H](C(=O)N(C)CC)CC(=O)N1C [PP1889] | A (a compound having 10 or more and less than 20 is denoted as A) | B (a compound having 3 or more and less than 10 is denoted as B)
CCC[C@H]1C(=O)N[C@@H]([C@@H](C)CC)C(=O)N(C)CC(=O)N(C)[C@H]2C/C=C\CCN(C2=O)[C@@H](Cc2ccc(C)cc2)C(=O)N(C)CC(=O)N[C@@H](CCc2ccc(C(F)(F)F)c(OC)c2)C(=O)N2C[C@H](C)C[C@H]2C(=O)NC2(CC(C)(C)C2)C(=O)N(C)[C@@H](C2CCCC2)C(=O)N(C)[C@H](C(=O)N(C)C)CC(=O)N1C [PP1890] | A (a compound having 10 or more and less than 20 is denoted as A) | B (a compound having 3 or more and less than 10 is denoted as B)
CCC[C@H]1C(=O)N[C@@H]([C@@H](C)CC)C(=O)N(C)CC(=O)N(C)[C@H]2C/C=C\CCN(C2=O)[C@@H](Cc2ccc(C)cc2)C(=O)N(C)CC(=O)N[C@@H](CCc2ccc(C(F)(F)F)c(OC)c2)C(=O)N2C[C@H](C)C[C@H]2C(=O)NC2(CC(C)(C)C2)C(=O)N(C)[C@@H](C2CCCC2)C(=O)N(C)[C@H](C(=O)N(C)CC)CC(=O)N1C [PP1891] | A (a compound having 10 or more and less than 20 is denoted as A) | A (a compound having 10 or more and less than 20 is denoted as A)
CCC[C@H]1C(=O)N[C@@H]([C@@H](C)CC)C(=O)N(C)CC(=O)N(C)[C@H]2C/C=C\CCN(C2=O)[C@@H](Cc2ccc(C)cc2)C(=O)N(C)CC(=O)N[C@@H](CCc2ccc(C(F)(F)F)c(OC)c2)C(=O)N2C[C@H](OCC)C[C@H]2C(=O)NC2(CC(C)(C)C2)C(=O)N(C)[C@@H](C2CCCC2)C(=O)N(C)[C@H](C(=O)N(C)C)CC(=O)N1C [PP1892] | A (a compound having 10 or more and less than 20 is denoted as A) | B (a compound having 3 or more and less than 10 is denoted as B)
CCC[C@H]1C(=O)N[C@@H]([C@@H](C)CC)C(=O)N(C)CC(=O)N(C)[C@H]2C/C=C\CCN(C2=O)[C@@H](Cc2ccc(C)cc2)C(=O)N(C)CC(=O)N[C@@H](CCc2ccc(C(F)(F)F)c(Cl)c2)C(=O)N2C[C@@H](C)C[C@H]2C(=O)NC2(CC(C)(C)C2)C(=O)N(C)[C@@H](C2CCCC2)C(=O)N(C)[C@H](C(=O)N(C)CC)CC(=O)N1C [PP1893] | A (a compound having 10 or more and less than 20 is denoted as A) | B (a compound having 3 or more and less than 10 is denoted as B)
CCC[C@H]1C(=O)N[C@@H]([C@@H](C)CC)C(=O)N(C)CC(=O)N(C)[C@H]2C/C=C\CCN(C2=O)[C@@H](Cc2ccc(C)cc2)C(=O)N(C)CC(=O)N[C@@H](CCc2ccc(C(F)(F)F)c(Cl)c2)C(=O)N2C[C@H](C)C[C@H]2C(=O)NC2(CC(C)(C)C2)C(=O)N(C)[C@@H](C2CCCC2)C(=O)N(C)[C@H](C(=O)N(C)CC)CC(=O)N1C [PP1894] | A (a compound having 10 or more and less than 20 is denoted as A) | A (a compound having 10 or more and less than 20 is denoted as A)
CCC[C@H]1C(=O)N[C@@H]([C@@H](C)CC)C(=O)N(C)CC(=O)N(C)[C@H]2C/C=C\CCN(C2=O)[C@@H](Cc2ccc(C)cc2)C(=O)N(C)CC(=O)N[C@@H](CCc2ccc(C(F)(F)F)c(Cl)c2)C(=O)N2C[C@H](OCC)C[C@H]2C(=O)NC2(CCC2)C(=O)N(C)[C@@H](C2CCCC2)C(=O)N(C)[C@H](C(=O)N(C)CC)CC(=O)N1C [PP1895] | A (a compound having 10 or more and less than 20 is denoted as A) | B (a compound having 3 or more and less than 10 is denoted as B)
CCC[C@H]1C(=O)N[C@@H]([C@@H](C)CC)C(=O)N(C)CC(=O)N(C)[C@H]2C/C=C\CCN(C2=O)[C@@H](Cc2ccc(C)cc2)C(=O)N(C)CC(=O)N[C@@H](CCc2ccc(C(F)(F)F)c(Cl)c2)C(=O)N2C[C@H](OCC)C[C@H]2C(=O)NC2(CC(C)(C)C2)C(=O)N(C)[C@@H](C2CCCC2)C(=O)N(C)[C@H](C(=O)N(C)C)CC(=O)N1C [PP1896] | A (a compound having 10 or more and less than 20 is denoted as A) | B (a compound having 3 or more and less than 10 is denoted as B)
CC[C@H](C)[C@@H]1NC(=O)[C@H](CC2CC2)N(C)C(=O)C[C@@H](C(=O)N(C)C)N(C)C(=O)[C@H](C2CCCC2)N(C)C(=O)C2(CC(C)(C)C2)NC(=O)[C@@H]2C[C@H](C)CN2C(=O)[C@H](CCc2ccc(C(F)(F)F)c(OC)c2)NC(=O)CN(C)C(=O)[C@H](Cc2ccc(C)cc2)N2CC/C=C\C[C@@H](C2=O)N(C)C(=O)CN(C)C1=O [PP1898] | B (a compound having 3 or more and less than 10 is denoted as B) | B (a compound having 3 or more and less than 10 is denoted as B)
CC[C@H](C)[C@@H]1NC(=O)[C@H](CC2CC2)N(C)C(=O)C[C@@H](C(=O)N(C)CC)N(C)C(=O)[C@H](C2CCCC2)N(C)C(=O)C2(CC(C)(C)C2)NC(=O)[C@@H]2C[C@H](C)CN2C(=O)[C@H](CCc2ccc(C(F)(F)F)c(OC)c2)NC(=O)CN(C)C(=O)[C@H](Cc2ccc(C)cc2)N2CC/C=C\C[C@@H](C2=O)N(C)C(=O)CN(C)C1=O [PP1899] | A (a compound having 10 or more and less than 20 is denoted as A) | B (a compound having 3 or more and less than 10 is denoted as B)
